Converted amounts (≈) assume the structure as drawn. Where two headings read alike, the source gives them in different places.
Legend:
[1] = tested on: E. coli transcription/translation (bacterial protein synthesis, E. coli S30 extract); assay: In vitro inhibition of E. coli transcription and translation assay (TT), cell-free; type: biochemical; details: for IC50: cell-free E. coli S30 extract; for In vitro inhibition of E. coli transcription and translation compared with literature azepine compound VIII(18): cell-free TT assay, comparison in words
Protocol: Inhibition of bacterial protein synthesis was assayed in a cell-free E. coli transcription/translation assay.
Stock solutions of compounds were prepared at 10 mg/mL in DMSO. The assay contained less or equal to 1% (v/v) final concentration of DMSO. Three-fold serial dilutions were prepared in assay buffer at 6-fold final concentration in 96 well microtiter plate.
All vials, tubes and microtiter plates are RNase free. The Mix was freshly prepared with 10 μl H2O, 10 μl AA-M, 10 μl AA-L, 80 μl Premix and 50 μl ES30 extract. The assay was performed in a 96-well plate. Five microliters of compounds at various concentrations (6-fold final assay concentration) were preincubated with 20 μl of the mix for 5 min at room temperature. The reaction started with addition of 5 μl of plasmid (˜0.1 mg/mL pGEMBGAL), and kept at 37° C. for 1 h followed by the addition of 150 μl of OPNG solution (4 mg/mL OPNG in 0.1M NaPi, pH 7.5, 1 mM MgCl2 and 2 mM DTT). 150 μl of the reaction was transferred to a ½-area plate and increase in absorption at OD420 nm was monitored for 10 min using a Spectramax plate reader (Molecular Devices). The slope of absorption change over time is corresponding to the pathway activity.
The E. coli S30 Extract for circular DNA kit was purchased from Promega. Original plasmid pGEMBGAL was obtained from Promega and amplified via Maxiprep in house. 2-Nitrophenyl β-D-galactopyranoside was obtained from Sigma. Clindamycin HCl (USP) was purchased from Spectrum.
The inhibition are expressed as percent of control activity (without inhibitor) which is calculated according to equation (1): Inhibition %=(compound slope-blank slope)/(control slope-blank slope)*100 (1)
All IC50s were determined by fitting the experimental data to equation (2) using software DeltaGraph (DeltaPoint Inc.): Y=Y0/(1+(X/IC50)[…])+c (2)
Where Y: activity at given inhibitor concentration; Y0: activity without inhibitor; X: inhibitor concentration; d: slope; c: constant.
Lincosamides inhibit bacterial growth through binding to the bacterial 50S ribosome, thus inhibiting peptide bond formation. The transcription/translation assay provides a screening tool to measure inhibition of bacterial protein synthesis pathway at the target level without the complication of differences in membrane permeability.

Bacteroides fragilis = assay: Susceptibility testing, NCCLS microdilution MIC (anaerobe); type: cell-based; details: Bacteroides fragilis, ATCC25285; B. fragilis ATCC 25285; Example A′; read-out: MIC B. fragilis
Staphylococcus aureus = assay: Susceptibility testing, NCCLS microdilution MIC; type: cell-based
Haemophilus influenzae = assay: Susceptibility testing, NCCLS microdilution MIC; type: cell-based; details: Haemophilus influenzae, Example A′
Enterococcus faecalis = assay: Susceptibility testing, NCCLS microdilution MIC; type: cell-based; details: Enterococcus faecalis, Example A′
[2] = ATCC25923, S. aureus ATCC 25923, Example A′, read-out: MIC S. aureus
[3] = ATCC31517, H. influenzae ATCC 31517, read-out: MIC H. influenzae
[4] = ATCC29212, E. faecalis ATCC 29212, read-out: MIC E. faecalis

| SMILES | IC50 [1] [µM] | In vitro inhibition of E. coli transcription and translation compared with literature azepine compound VIII(18) [1] | MIC (Bacteroides fragilis) [µg/mL] | MIC (Staphylococcus aureus; [2]) [µg/mL] | MIC (Haemophilus influenzae; [3]) [µg/mL] | MIC (Enterococcus faecalis; [4]) [µg/mL] | MIC (Staphylococcus aureus; Example A′, strain not stated, 24 h at 35° C., read-out: MIC against Staphylococcus aureus) [µg/mL] | MIC (Haemophilus influenzae; strain not stated, 24 h at 35° C., read-out: MIC against Haemophilus influenzae) [µg/mL] | MIC (Enterococcus faecalis; strain not stated, 24 h at 35° C., read-out: MIC against Enterococcus faecalis) [µg/mL] |
| --- | --- | --- | --- | --- | --- | --- | --- | --- | --- |
| COCCCC[C@@H]1CCN[C@H](C(=O)N[C@@H]([C@H]2O[C@H](SC)[C@H](O)[C@@H](O)[C@H]2O)[C@H](C)Cl)CC1 [Example 12′, 5-(4-Methoxy-butyl)-azepane-2-carboxylic acid [2-chloro-1-(3,4,5-trihydroxy-6-methylsulfanyl-tetrahydro-pyran-2-yl)-propyl]-amide] | 0.29 | markedly superior | 2 (≈ 4.14 µM) | 0.06 (≈ 0.124 µM) | 0.5 (≈ 1.04 µM) | 0.5 (≈ 1.04 µM) |  |  |  |
| COCc1cn(CCC[C@@H]2CCN[C@H](C(=O)N[C@@H]([C@H]3O[C@H](SC)[C@H](O)[C@@H](O)[C@H]3O)[C@H](C)Cl)CC2)nn1 [Example 16′, 5-[3-(4-Methoxymethyl-[1,2,3]triazol-1-yl)-propyl]-azepane-2-carboxylic acid [2-chloro-1-(3,4,5-trihydroxy-6-methylsulfanyl-tetrahydro-pyran-2-yl)-propyl]-amide] | 0.44 | markedly superior | > 8 | 2 (≈ 3.64 µM) | 2 (≈ 3.64 µM) | > 8 |  |  |  |
| CS[C@H]1O[C@H]([C@H](NC(=O)C2CC[C@H](CCCn3ccnn3)CCN2)[C@H](C)Cl)[C@H](O)[C@H](O)[C@H]1O (stereo in doubt) [Example 9′, 5-(3-[1,2,3]Triazol-1-yl-propyl)-azepane-2-carboxylic acid [2-chloro-1-(3,4,5-trihydroxy-6-methylsulfanyl-tetrahydro-pyran-2-yl)-propyl]-amide] | 0.28 | markedly superior | > 8 | 0.5 (≈ 0.988 µM) | 2 (≈ 3.95 µM) | 4 (≈ 7.9 µM) |  |  |  |
| CS[C@H]1O[C@H]([C@H](NC(=O)C2CC[C@H](CCCO)CCN2)[C@H](C)Cl)[C@H](O)[C@H](O)[C@H]1O (stereo in doubt) [Example 2′, 5-(3-Hydroxy-propyl)-azepane-2-carboxylic acid [2-chloro-1-(3,4,5-trihydroxy-6-methylsulfanyl-tetrahydro-pyran-2-yl)-propyl]-amide] | 0.4 | markedly superior | 4 (≈ 8.79 µM) | 0.5 (≈ 1.1 µM) | 0.5 (≈ 1.1 µM) | 1 (≈ 2.2 µM) |  |  |  |
| CS[C@H]1O[C@H]([C@H](NC(=O)[C@@H]2CC[C@H](CCCCOc3cccnc3)CCN2)[C@H](C)Cl)[C@H](O)[C@H](O)[C@H]1O [Example 14′, 5-[4-(Pyridin-3-yloxy)-butyl]-azepane-2-carboxylic acid [2-chloro-1-(3,4,5-trihydroxy-6-methylsulfanyl-tetrahydro-pyran-2-yl)-propyl]-amide] | 0.2 | markedly superior | 8 (≈ 14.6 µM) | 0.125 (≈ 0.229 µM) | 1 (≈ 1.83 µM) | 0.5 (≈ 0.916 µM) |  |  |  |
| CS[C@H]1O[C@H]([C@H](NC(=O)[C@@H]2CCCCCN2)[C@H](C)Cl)[C@H](O)[C@H](O)[C@H]1O [VIII(18), Azepane-2-carboxylic acid [2-chloro-1-(3,4,5-trihydroxy-6-methylsulfanyl-tetrahydro-pyran-2-yl)-propyl]-amide, reference compound] | 21 |  | 2 (≈ 5.04 µM) | 4 (≈ 10.1 µM) | > 8 | 8 (≈ 20.2 µM) | 4 (≈ 10.1 µM) | > 8 | 8 (≈ 20.2 µM) |
| CS[C@H]1O[C@H]([C@H](NC(=O)[C@@H]2CC[C@H](CCCC(F)F)CCN2)[C@H](C)Cl)[C@H](O)[C@H](O)[C@H]1O [Example 11′, 5-(4,4-Difluoro-butyl)-azepane-2-carboxylic acid [2-chloro-1-(3,4,5-trihydroxy-6-methylsulfanyl-tetrahydro-pyran-2-yl)-propyl]-amide] | 0.25 | markedly superior | 1 (≈ 2.04 µM) | 0.06 (≈ 0.123 µM) | 0.25 (≈ 0.511 µM) | 0.06 (≈ 0.123 µM) |  |  |  |
| CCCc1cn(CCC[C@@H]2CCN[C@H](C(=O)N[C@@H]([C@H]3O[C@H](SC)[C@H](O)[C@@H](O)[C@H]3O)[C@H](C)Cl)CC2)nn1 [Example 17′, 5-[3-(4-Propyl-[1,2,3]triazol-1-yl)-propyl]-azepane-2-carboxylic acid [2-chloro-1-(3,4,5-trihydroxy-6-methylsulfanyl-tetrahydro-pyran-2-yl)-propyl]-amide] | 0.75 | markedly superior | > 8 | 1 (≈ 1.82 µM) | 4 (≈ 7.3 µM) | 8 (≈ 14.6 µM) |  |  |  |
| CS[C@H]1O[C@H]([C@H](NC(=O)C2CC[C@H](CCCCO)CCN2)[C@H](C)Cl)[C@H](O)[C@H](O)[C@H]1O (stereo in doubt) [Example 1′, 5-(4-Hydroxy-butyl)-azepane-2-carboxylic acid [2-chloro-1-(3,4,5-trihydroxy-6-methylsulfanyl-tetrahydro-pyran-2-yl)-propyl]-amide] | 0.53 | markedly superior | 8 (≈ 17.1 µM) | 0.25 (≈ 0.533 µM) | 0.5 (≈ 1.07 µM) | 1 (≈ 2.13 µM) |  |  |  |
| CS[C@H]1O[C@H]([C@H](NC(=O)[C@@H]2CC[C@H](CCC(F)F)CCN2)[C@H](C)Cl)[C@H](O)[C@H](O)[C@H]1O [Example 10′, 5-(3,3-Difluoro-propyl)-azepane-2-carboxylic acid [2-chloro-1-(3,4,5-trihydroxy-6-methylsulfanyl-tetrahydro-pyran-2-yl)-propyl]-amide] | 0.53 | markedly superior | 1 (≈ 2.11 µM) | 0.06 (≈ 0.126 µM) | 0.5 (≈ 1.05 µM) | 0.125 (≈ 0.263 µM) |  |  |  |
| CS[C@H]1O[C@H]([C@H](NC(=O)[C@@H]2CC[C@H](CCCOc3cccnc3)CCN2)[C@H](C)Cl)[C@H](O)[C@H](O)[C@H]1O [Example 15′, 5-[3-(Pyridin-3-yloxy)-propyl]-azepane-2-carboxylic acid [2-chloro-1-(3,4,5-trihydroxy-6-methylsulfanyl-tetrahydro-pyran-2-yl)-propyl]-amide] | 1.1 | markedly superior | > 8 | 0.125 (≈ 0.235 µM) | 2 (≈ 3.76 µM) | 0.5 (≈ 0.94 µM) |  |  |  |
| CS[C@H]1O[C@H]([C@H](NC(=O)C2CC[C@H](CCCCC#N)CCN2)[C@H](C)Cl)[C@H](O)[C@H](O)[C@H]1O (stereo in doubt) [Example 8′, 5-(4-Cyano-butyl)-azepane-2-carboxylic acid [2-chloro-1-(3,4,5-trihydroxy-6-methylsulfanyl-tetrahydro-pyran-2-yl)-propyl]-amide] | 0.19 | markedly superior | 1 (≈ 2.09 µM) | 0.125 (≈ 0.261 µM) | 0.5 (≈ 1.05 µM) | 0.06 (≈ 0.126 µM) |  |  |  |
| CS[C@H]1O[C@H]([C@H](NC(=O)[C@@H]2CC[C@H](CCCn3cc(C(C)C)nn3)CCN2)[C@H](C)Cl)[C@H](O)[C@H](O)[C@H]1O [Example 18′, 5-[3-(4-(2-Propyl)-[1,2,3]triazol-1-yl)-propyl]-azepane-2-carboxylic acid [2-chloro-1-(3,4,5-trihydroxy-6-methylsulfanyl-tetrahydro-pyran-2-yl)-propyl]-amide] | 0.44 | markedly superior | > 8 | 1 (≈ 1.82 µM) | 4 (≈ 7.3 µM) | 4 (≈ 7.3 µM) |  |  |  |

From US7361743B2 (Pfizer Inc, priority 2004, dated 2008)
